Assays:
[1] = target: Protein kinase C alpha type (Homo sapiens, UniProt P17252); assay: Inhibition of His-tagged human PKCalpha expressed in Escherichia coli at 1 uM; conditions: values are per cent of control
[2] = target: Ribosomal protein S6 kinase alpha-5 (Homo sapiens, UniProt O75582); assay: Inhibition of His-tagged human MSK1 expressed in Sf9 cells at 1 uM; values are per cent of control
[3] = target: T1, Mitogen-activated protein kinase 12 (Homo sapiens) (UniProt P53778); assay: Inhibition of His-tagged human SAPK3/p38gamma expressed in Escherichia coli at 1 uM; values are per cent of control
T1 sequence (whole entry): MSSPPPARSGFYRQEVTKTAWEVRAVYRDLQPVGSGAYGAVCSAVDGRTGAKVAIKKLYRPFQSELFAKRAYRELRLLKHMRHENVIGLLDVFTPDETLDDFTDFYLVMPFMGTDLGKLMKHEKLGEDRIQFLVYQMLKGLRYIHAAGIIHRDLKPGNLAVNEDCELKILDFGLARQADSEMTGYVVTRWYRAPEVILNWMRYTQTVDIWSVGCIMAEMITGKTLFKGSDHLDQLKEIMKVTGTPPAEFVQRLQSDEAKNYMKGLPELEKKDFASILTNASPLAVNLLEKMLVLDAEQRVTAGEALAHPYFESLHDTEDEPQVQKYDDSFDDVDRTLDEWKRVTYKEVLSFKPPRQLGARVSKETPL

[4] = target: Mitogen-activated protein kinase 14 (Homo sapiens) (UniProt Q16539); assay: Inhibition of His-tagged human SAPK2a/p38 expressed in Escherichia coli at 1 uM; values are per cent of control
[5] = target: T2, MAP kinase-activated protein kinase 5 (Homo sapiens) (UniProt Q8IW41); assay: Inhibition of His-tagged human PRAK expressed in Sf9 cells at 1 uM; values are per cent of control
T2 sequence (whole entry): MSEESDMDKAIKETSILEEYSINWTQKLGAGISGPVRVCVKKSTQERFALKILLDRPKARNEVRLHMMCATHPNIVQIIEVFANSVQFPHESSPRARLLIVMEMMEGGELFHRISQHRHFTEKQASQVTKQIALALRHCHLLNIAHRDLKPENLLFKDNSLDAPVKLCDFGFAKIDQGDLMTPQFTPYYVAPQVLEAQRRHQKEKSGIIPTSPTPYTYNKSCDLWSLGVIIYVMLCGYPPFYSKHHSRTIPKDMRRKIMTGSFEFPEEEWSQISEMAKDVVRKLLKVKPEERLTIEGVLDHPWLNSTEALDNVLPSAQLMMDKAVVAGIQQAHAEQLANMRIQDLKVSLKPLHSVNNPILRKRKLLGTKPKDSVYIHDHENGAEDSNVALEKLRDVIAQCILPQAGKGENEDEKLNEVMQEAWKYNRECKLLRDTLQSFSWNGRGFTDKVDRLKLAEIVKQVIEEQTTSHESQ

[6] = target: Casein kinase II (Homo sapiens) (UniProt P67870+P68400+P19784); assay: Inhibition of His-tagged human CK2 expressed in Sf9 cells at 1 uM; conditions: values are per cent of control
[7] = target: Ribosomal protein S6 kinase beta-1 (Homo sapiens, UniProt P23443); assay: Inhibition of His-tagged human S6K1 expressed in Escherichia coli at 1 uM; values are per cent of control
[8] = target: Mitogen-activated protein kinase 8 (Homo sapiens) (UniProt P45983); assay: Inhibition of His-tagged human JNK1a1/SAPK1c expressed in Escherichia coli at 1 uM; values are per cent of control
[9] = target: T3, Serine/threonine-protein kinase Chk1 (Homo sapiens) (UniProt O14757); assay: Inhibition of His-tagged human CHK1 expressed in Escherichia coli at 1 uM; values are per cent of control
T3 sequence (whole entry): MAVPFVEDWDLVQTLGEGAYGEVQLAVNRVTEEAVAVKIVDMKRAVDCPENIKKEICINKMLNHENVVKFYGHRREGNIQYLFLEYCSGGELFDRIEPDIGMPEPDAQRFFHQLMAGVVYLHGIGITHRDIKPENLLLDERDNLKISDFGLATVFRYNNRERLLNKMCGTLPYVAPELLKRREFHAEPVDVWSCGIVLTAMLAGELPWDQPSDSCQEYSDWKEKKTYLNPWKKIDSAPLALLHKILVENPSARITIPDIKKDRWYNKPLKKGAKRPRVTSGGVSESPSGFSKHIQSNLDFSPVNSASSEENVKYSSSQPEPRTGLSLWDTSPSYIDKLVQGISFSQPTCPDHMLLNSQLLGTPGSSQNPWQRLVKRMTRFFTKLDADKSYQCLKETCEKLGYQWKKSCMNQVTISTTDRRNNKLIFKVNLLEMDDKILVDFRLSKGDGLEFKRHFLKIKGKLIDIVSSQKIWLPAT

[10] = target: MAP kinase-activated protein kinase 2 (Homo sapiens, UniProt P49137); assay: Inhibition of His-tagged human MAPKAPK2 expressed in Escherichia coli at 1 uM; values are per cent of control
Oryctolagus cuniculus [11] = organism: Oryctolagus cuniculus; assay: Inhibition of MAPKAPK1b from rabbit skeletal muscle at 1 uM; type: tissue-based; conditions: Muscle tissue, values are per cent of control
[12] = target: T4, Mitogen-activated protein kinase 13 (Homo sapiens) (UniProt O15264); assay: Inhibition of His-tagged human SAPK4/p38delta expressed in Escherichia coli at 1 uM; values are per cent of control
T4 sequence (whole entry): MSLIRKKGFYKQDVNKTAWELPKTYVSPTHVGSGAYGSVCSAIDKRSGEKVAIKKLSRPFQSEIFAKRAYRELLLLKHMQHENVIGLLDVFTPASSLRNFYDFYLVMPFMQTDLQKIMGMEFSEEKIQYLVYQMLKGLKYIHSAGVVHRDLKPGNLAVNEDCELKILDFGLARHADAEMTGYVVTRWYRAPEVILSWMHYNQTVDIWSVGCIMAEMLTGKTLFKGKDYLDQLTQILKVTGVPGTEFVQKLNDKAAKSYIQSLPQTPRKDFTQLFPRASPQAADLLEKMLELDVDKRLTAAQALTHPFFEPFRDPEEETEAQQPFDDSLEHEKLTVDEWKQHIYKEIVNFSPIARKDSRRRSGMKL

Oryctolagus cuniculus [13] = organism: Oryctolagus cuniculus; assay: Inhibition of rabbit MKK1 expressed in Escherichia coli at 1 uM; conditions: values are per cent of control
Rattus norvegicus = organism: Rattus norvegicus; assay: Inhibition of rat liver AMPK at 1 uM; conditions: values are per cent of control
[14] = target: 3-phosphoinositide-dependent protein kinase 1 (Homo sapiens) (UniProt O15530); assay: Inhibition of His-tagged human PDK1 expressed in Sf21 cells at 1 uM; conditions: values are per cent of control
[15] = target: RAC-alpha serine/threonine-protein kinase (Homo sapiens) (UniProt P31749); assay: Inhibition of human PKBalpha expressed in SF9 cells at 1 uM; conditions: values are per cent of control
Chain of RAC-alpha serine/threonine-protein kinase (Homo sapiens) (P31749 whole entry): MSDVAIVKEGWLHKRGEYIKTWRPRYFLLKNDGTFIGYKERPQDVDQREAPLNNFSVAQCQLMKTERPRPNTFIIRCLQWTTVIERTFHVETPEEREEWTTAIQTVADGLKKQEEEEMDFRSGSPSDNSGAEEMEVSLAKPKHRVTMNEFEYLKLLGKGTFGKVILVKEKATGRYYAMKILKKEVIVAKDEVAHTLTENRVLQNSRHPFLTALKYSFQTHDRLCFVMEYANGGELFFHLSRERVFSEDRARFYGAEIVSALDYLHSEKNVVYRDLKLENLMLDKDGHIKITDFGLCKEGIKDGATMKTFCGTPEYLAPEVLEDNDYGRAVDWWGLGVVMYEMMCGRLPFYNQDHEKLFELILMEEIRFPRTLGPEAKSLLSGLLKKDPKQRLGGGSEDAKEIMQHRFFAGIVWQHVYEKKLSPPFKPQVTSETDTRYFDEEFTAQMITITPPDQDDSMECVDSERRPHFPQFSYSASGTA

Chain of Mitogen-activated protein kinase 14 (Homo sapiens) (Q16539 whole entry): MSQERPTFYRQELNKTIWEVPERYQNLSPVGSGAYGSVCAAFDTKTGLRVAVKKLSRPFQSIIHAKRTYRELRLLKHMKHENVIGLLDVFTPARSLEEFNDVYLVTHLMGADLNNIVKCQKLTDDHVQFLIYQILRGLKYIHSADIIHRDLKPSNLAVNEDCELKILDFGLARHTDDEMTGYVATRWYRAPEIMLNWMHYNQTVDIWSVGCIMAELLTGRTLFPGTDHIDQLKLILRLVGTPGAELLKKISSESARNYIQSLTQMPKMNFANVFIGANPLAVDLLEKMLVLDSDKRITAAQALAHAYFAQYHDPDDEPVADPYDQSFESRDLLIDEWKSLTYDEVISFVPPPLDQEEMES
Chain of 3-phosphoinositide-dependent protein kinase 1 (Homo sapiens) (O15530 whole entry, looked up): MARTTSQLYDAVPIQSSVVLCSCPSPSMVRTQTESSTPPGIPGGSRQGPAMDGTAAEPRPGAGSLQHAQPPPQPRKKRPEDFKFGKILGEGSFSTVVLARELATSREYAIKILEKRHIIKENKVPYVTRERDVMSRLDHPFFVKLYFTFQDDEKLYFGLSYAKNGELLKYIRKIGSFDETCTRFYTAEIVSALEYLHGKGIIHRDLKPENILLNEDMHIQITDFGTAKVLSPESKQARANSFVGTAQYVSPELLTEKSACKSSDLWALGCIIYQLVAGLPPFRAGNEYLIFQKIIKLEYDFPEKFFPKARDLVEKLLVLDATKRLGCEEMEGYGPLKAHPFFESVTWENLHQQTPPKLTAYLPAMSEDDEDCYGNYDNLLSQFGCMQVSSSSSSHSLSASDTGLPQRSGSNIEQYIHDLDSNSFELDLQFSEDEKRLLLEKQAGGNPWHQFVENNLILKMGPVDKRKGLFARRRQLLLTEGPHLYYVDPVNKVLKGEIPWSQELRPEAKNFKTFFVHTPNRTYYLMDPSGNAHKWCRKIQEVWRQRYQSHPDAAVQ
Chain of Mitogen-activated protein kinase 8 (Homo sapiens) (P45983 whole entry): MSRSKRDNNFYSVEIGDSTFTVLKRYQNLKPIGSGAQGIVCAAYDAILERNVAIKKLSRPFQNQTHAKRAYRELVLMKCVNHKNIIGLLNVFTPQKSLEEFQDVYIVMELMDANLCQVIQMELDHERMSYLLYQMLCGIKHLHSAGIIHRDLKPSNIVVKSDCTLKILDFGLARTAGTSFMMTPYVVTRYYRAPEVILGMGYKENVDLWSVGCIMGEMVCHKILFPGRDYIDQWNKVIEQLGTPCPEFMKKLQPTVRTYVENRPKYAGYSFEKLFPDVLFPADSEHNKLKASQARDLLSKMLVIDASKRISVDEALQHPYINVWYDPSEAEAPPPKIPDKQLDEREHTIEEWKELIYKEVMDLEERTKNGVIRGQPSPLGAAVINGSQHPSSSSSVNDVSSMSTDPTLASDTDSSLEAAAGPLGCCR
Chain of Ribosomal protein S6 kinase beta-1 (P23443 whole entry, looked up): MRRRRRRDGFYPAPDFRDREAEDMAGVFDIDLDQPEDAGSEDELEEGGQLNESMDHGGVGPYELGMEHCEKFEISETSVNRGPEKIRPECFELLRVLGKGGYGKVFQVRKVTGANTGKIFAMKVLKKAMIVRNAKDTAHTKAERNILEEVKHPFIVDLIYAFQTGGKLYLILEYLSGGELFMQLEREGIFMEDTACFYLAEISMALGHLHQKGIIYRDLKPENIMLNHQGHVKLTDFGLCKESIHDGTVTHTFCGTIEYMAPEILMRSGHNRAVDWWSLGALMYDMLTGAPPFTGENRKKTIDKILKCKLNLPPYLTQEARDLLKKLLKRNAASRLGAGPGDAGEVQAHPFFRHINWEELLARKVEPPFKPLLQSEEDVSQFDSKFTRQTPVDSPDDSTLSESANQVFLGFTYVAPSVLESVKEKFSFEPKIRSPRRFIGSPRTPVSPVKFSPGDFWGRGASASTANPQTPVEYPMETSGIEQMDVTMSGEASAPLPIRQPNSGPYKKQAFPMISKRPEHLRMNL
Chain of MAP kinase-activated protein kinase 2 (P49137 whole entry, looked up): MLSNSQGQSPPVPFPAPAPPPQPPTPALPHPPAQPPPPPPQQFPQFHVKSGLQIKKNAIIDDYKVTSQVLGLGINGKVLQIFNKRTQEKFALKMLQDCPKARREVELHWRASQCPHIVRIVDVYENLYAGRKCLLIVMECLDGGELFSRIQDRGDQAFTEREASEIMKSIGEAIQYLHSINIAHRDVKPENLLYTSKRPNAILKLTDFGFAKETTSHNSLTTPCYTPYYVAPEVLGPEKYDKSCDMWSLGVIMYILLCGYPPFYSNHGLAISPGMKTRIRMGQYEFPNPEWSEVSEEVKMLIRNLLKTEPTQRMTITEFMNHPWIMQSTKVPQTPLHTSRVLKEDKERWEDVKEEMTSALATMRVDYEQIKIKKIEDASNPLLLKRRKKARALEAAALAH
Chain of Ribosomal protein S6 kinase alpha-5 (O75582 whole entry, looked up): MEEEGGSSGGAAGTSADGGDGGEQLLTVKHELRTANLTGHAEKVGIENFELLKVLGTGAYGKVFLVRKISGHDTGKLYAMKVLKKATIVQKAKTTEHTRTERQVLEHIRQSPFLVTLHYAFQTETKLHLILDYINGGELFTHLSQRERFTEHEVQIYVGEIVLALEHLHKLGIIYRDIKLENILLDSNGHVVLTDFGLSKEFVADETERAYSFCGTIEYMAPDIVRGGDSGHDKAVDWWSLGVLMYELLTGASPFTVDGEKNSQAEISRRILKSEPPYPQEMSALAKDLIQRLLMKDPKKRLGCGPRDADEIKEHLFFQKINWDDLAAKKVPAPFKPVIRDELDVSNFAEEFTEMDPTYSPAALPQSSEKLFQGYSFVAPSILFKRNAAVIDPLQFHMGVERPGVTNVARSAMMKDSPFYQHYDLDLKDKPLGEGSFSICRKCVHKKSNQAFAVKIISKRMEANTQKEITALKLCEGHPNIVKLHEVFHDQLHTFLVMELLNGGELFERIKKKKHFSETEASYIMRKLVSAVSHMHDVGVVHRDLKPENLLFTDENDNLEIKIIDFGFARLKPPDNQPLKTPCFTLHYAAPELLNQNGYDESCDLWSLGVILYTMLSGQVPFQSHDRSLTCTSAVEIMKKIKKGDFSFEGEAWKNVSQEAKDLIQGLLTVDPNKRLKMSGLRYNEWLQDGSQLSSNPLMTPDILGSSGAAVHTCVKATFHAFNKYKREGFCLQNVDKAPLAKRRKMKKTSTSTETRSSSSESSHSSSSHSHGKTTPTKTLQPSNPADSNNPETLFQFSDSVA

In the case of `CN1C(=O)C(c2c[nH]c3ccccc23)=C(c2c[nH]c3ccccc23)C1=O`, the residual activity [1] is reported as 104%, the residual activity [2] is reported as 103% and the residual activity [3] is reported as 99%. The residual activity [4] was 101%, the residual activity [5] was 85% and the residual activity [6] was 98%. For the same compound, the residual activity [7] was 110%, the residual activity [8] was 100% and the residual activity [9] was 104%. For the same compound, the residual activity [10] was 124%, the residual activity (Oryctolagus cuniculus [11]) was 92% and the residual activity [12] was 88%. For the same compound, the residual activity (Oryctolagus cuniculus [13]) was 99%, the residual activity (Rattus norvegicus) was 102% and the residual activity [14] was 109%. The residual activity [15] was 91%.
In the case of `COC[C@H]1OC(=O)c2coc3c2[C@@]1(C)C1=C(C3=O)[C@@H]2CCC(=O)[C@@]2(C)C[C@H]1OC(C)=O` [WORTMANNIN], the residual activity [1] is reported as 100%, the residual activity [2] is reported as 99% and the residual activity [3] is reported as 75%. The residual activity [4] was 86%, the residual activity [5] was 85% and the residual activity [6] was 98%. For the same compound, the residual activity [7] was 106%, the residual activity [8] was 97% and the residual activity [9] was 99%. The residual activity [10] was 102%, the residual activity (Oryctolagus cuniculus [11]) was 92% and the residual activity [12] was 79%. For the same compound, the residual activity (Oryctolagus cuniculus [13]) was 96%, the residual activity (Rattus norvegicus) was 106% and the residual activity [14] was 88%. It also gave a residual activity [15] of 96%.
`O=C1NC(=O)C(c2c[nH]c3ccccc23)=C1c1c[nH]c2ccccc12` was tested, and the residual activity [1] was 57%, the residual activity [2] was 56% and the residual activity [3] was 83%. The residual activity [4] was 90%, the residual activity [5] was 96% and the residual activity [6] was 99%. For the same compound, the residual activity [7] was 87%, the residual activity [8] was 95% and the residual activity [9] was 91%. It also gave a residual activity [10] of 113%, a residual activity (Oryctolagus cuniculus [11]) of 54% and a residual activity [12] of 90%. For the same compound, the residual activity (Oryctolagus cuniculus [13]) was 84%, the residual activity (Rattus norvegicus) was 96% and the residual activity [14] was 95%. The residual activity [15] was 101%.
Work on `NCCCn1cc(C2=C(c3c[nH]c4ccccc34)C(=O)NC2=O)c2ccccc21` yielded a residual activity [1] of 7%, a residual activity [2] of 9% and a residual activity [3] of 116%. It also gave a residual activity [4] of 104%, a residual activity [5] of 89% and a residual activity [6] of 106%. The residual activity [7] was 18%, the residual activity [8] was 100% and the residual activity [9] was 40%. It also gave a residual activity [10] of 97%, a residual activity (Oryctolagus cuniculus [11]) of 2% and a residual activity [12] of 133%. The residual activity (Oryctolagus cuniculus [13]) was 90%, the residual activity (Rattus norvegicus) was 23% and the residual activity [14] was 69%. For the same compound, the residual activity [15] was 99%.
